From US10765114B2, “4-amino-6-(pyridyl and 2-substitutedphenyl)-picolinates and 6-amino-2-(pyridyl and 2-substitutedphenyl)-pyrimidine-4-carboxylates and their use as herbicides” (Dow AgroSciences LLC, priority 2013, dated 2020)

How the values were obtained:
SASKR (Russian thistle) = assay: Post-Emergent Test III (Wheat and Barley); assay type: in vivo, Salsola tragus; details: for GR50, SASKR / GR80, SASKR / GR90, SASKR: probit analysis
Procedure: (§1) Seeds of the desired test plant species were planted in Sun Gro MetroMix® 306 planting mixture, which typically has a pH of 6.0 to 6.8 and an organic matter content of about 30 percent, in plastic pots with a surface area of 103.2 square centimeters (cm^2). When required to ensure good germination and healthy plants, a fungicide treatment and/or other chemical or physical treatment was applied. The plants were grown for 7-36 days in a greenhouse with an approximate 14 h photoperiod which was maintained at about 18° C. during the day and 17° C. during the night. Nutrients and water were added on a regular basis and supplemental lighting was provided with overhead metal halide 1000-Watt lamps as necessary. The plants were employed for testing when they reached the second or third true leaf stage.
(§2) A weighed amount, determined by the highest rate to be tested, of each test compound was placed in a 25 mL glass vial and was dissolved in 4 mL of a 97:3 v/v mixture of acetone and DMSO to obtain concentrated stock solutions. […] The concentrated stock solutions obtained were diluted with 20 mL of an aqueous mixture containing acetone, water, isopropyl alcohol, DMSO, Agri-Dex crop oil concentrate, and X-77 surfactant in a 48:39:10:1.5:1.5:0.02 v/v ratio to obtain spray solutions containing the highest application rates. Additional application rates were obtained by serial dilution of 12 mL of the high rate solution into a solution containing 2 mL of 97:3 v/v mixture of acetone and DMSO and 10 mL of an aqueous mixture containing acetone, water, isopropyl alcohol, DMSO, Agri-Dex crop oil concentrate, and X-77 surfactant in a 48:39:10:1.5:1.5:0.02 v/v ratio to obtain ½×, ¼×, ⅛× and 1/16× rates of the high rate. Compound requirements are based upon a 12 mL application volume at a rate of 187 liters per hectare (L/ha). Formulated compounds were applied to the plant material with an overhead Mandel track sprayer equipped with 8002E nozzles calibrated to deliver 187 L/ha over an application area of 0.503 square meters at a spray height of 18 inches (43 cm) above the average plant canopy height. Control plants were sprayed in the same manner with the solvent blank.
(§3) The treated plants and control plants were placed in a greenhouse as described above and watered by subirrigation to prevent wash-off of the test compounds. After 21 dAYS, the condition of the test plants as compared with that of the untreated plants was determined visually and scored on a scale of 0 to 100 percent where 0 corresponds to no injury and 100 corresponds to complete kill and presented as indicated in Table A.
(§4) By applying the well-accepted probit analysis as described by J. Berkson in Journal of the American Statistical Society, 48, 565 (1953) and by D. Finney in “Probit Analysis” Cambridge University Press (1952), herbicidal injury of a specific compound at various rates can be used to calculate GR10, GR20, GR50, GR80 and GR90 values, which are defined as growth reduction factors that correspond to the effective dose of herbicide required to provide plant growth reduction (GR) of 10 percent, 20 percent, 50 percent, 80 percent and 90 percent, respectively. Probit analysis was applied to data collected from multiple dose rates of individual compounds utilizing the procedures explained in the following examples. The analysis of those dose rates is captured in the following tables.

SINAR (wild mustard) = assay: Post-Emergent Test III (Wheat and Barley); assay type: in vivo, Sinapis arvensis; details: for Visual Growth Reduction (%) 21 Days After Application, SINAR: postemergence
Procedure: as §1, §2, §3, §4

[1] = tested on: PHAMI (littleseed canarygrass); assay: Post-Emergent Test III (Wheat and Barley); assay type: in vivo, Phalaris minor; details: for Visual Growth Reduction (%) 21 Days After Application, PHAMI: postemergence
Procedure: as §1, §2, §3, §4

PAPRH (common poppy) = assay: Post-Emergent Test III (Wheat and Barley); assay type: in vivo, Papaver rhoeas; details: for GR50, PAPRH / GR80, PAPRH / GR90, PAPRH: probit analysis
Procedure: as §1, §2, §3, §4

[2] = tested on: VERPE (Persian speedwell); assay: Post-Emergent Test III (Wheat and Barley); assay type: in vivo, Veronica persica; details: for GR50, VERPE / GR80, VERPE / GR90, VERPE: probit analysis
Procedure: as §1, §2, §3, §4

[3] = tested on: test plant species in Wheat and Barley; assay: Post-Emergent Test III (Wheat and Barley), further species of Table 9; assay type: in vivo; details: for Visual Growth Reduction (%) 21 Days After Application, CHEAL: CHEAL lambsquarters (Chenopodium album); for Visual Growth Reduction (%) 21 Days After Application, CHEAL / Visual Growth Reduction (%) 21 Days After Application, GALAP / Visual Growth Reduction (%) 21 Days After Application, STEME / Visual Growth Reduction (%) 21 Days After Application, VIOTR: post-emergent; for Visual Growth Reduction (%) 21 Days After Application, GALAP: GALAP cleavers (Galium aparine); for Visual Growth Reduction (%) 21 Days After Application, STEME: STEME common chickweed (Stellaria media); for Visual Growth Reduction (%) 21 Days After Application, VIOTR: VIOTR wild pansy (Viola tricolor)
Procedure: as §1, §2, §3, §4

[4] = effective dose for growth reduction of 50 percent
[5] = effective dose for growth reduction of 80 percent
[6] = effective dose for growth reduction of 90 percent
[7] = effective dose for growth reduction of 50 percent, probit analysis
[8] = effective dose for growth reduction of 80 percent, probit analysis
[9] = effective dose for growth reduction of 90 percent, probit analysis

**Q.** What does the source list for `Cc1c(-c2cc(N)c(Cl)c(C(=O)O)n2)ccc(Cl)c1F` [Compound 52]?
**A.** Visual Growth Reduction (%) 21 Days After Application, SASKR (SASKR (Russian thistle); 35 g ai/ha, postemergence): D (60-74); Visual Growth Reduction (%) 21 Days After Application, SASKR (SASKR (Russian thistle); 70 g ai/ha, postemergence): D (60-74); Visual Growth Reduction (%) 21 Days After Application, SASKR (SASKR (Russian thistle); 140 g ai/ha, postemergence): C (75-84); GR50, SASKR (SASKR (Russian thistle); [4]): 1 g ai/ha; GR80, SASKR (SASKR (Russian thistle); [5]): >140 g ai/ha; GR90, SASKR (SASKR (Russian thistle); [6]): >140 g ai/ha; Visual Growth Reduction (%) 21 Days After Application, SINAR (SINAR (wild mustard); 35 g ai/ha): A (95-100); Visual Growth Reduction (%) 21 Days After Application, SINAR (SINAR (wild mustard); 70 g ai/ha): A (95-100); Visual Growth Reduction (%) 21 Days After Application, SINAR (SINAR (wild mustard); 140 g ai/ha): A (95-100); GR50, SINAR (SINAR (wild mustard); [7]): 1 g ai/ha; GR80, SINAR (SINAR (wild mustard); [8]): 1 g ai/ha; GR90, SINAR (SINAR (wild mustard); [9]): 5 g ai/ha; Visual Growth Reduction (%) 21 Days After Application, PHAMI ([1]; 35 g ai/ha): C (75-84); Visual Growth Reduction (%) 21 Days After Application, PHAMI ([1]; 70 g ai/ha): B (85-94); Visual Growth Reduction (%) 21 Days After Application, PHAMI ([1]; 140 g ai/ha): B (85-94); GR50, PHAMI [1, 7]: 18 g ai/ha; GR80, PHAMI [1, 8]: 38 g ai/ha; GR90, PHAMI [1, 9]: 56 g ai/ha; Visual Growth Reduction (%) 21 Days After Application, PAPRH (PAPRH (common poppy); 35 g ai/ha, postemergence): D (60-74); Visual Growth Reduction (%) 21 Days After Application, PAPRH (PAPRH (common poppy); 70 g ai/ha, postemergence): D (60-74); Visual Growth Reduction (%) 21 Days After Application, PAPRH (PAPRH (common poppy); 140 g ai/ha, postemergence): C (75-84); GR50, PAPRH (PAPRH (common poppy); [4]): 4 g ai/ha; GR80, PAPRH (PAPRH (common poppy); [5]): >140 g ai/ha; GR90, PAPRH (PAPRH (common poppy); [6]): >140 g ai/ha; Visual Growth Reduction (%) 21 Days After Application, VERPE ([2]; 35 g ai/ha, postemergence): G (0-29); Visual Growth Reduction (%) 21 Days After Application, VERPE ([2]; 70 g ai/ha, postemergence): G (0-29); Visual Growth Reduction (%) 21 Days After Application, VERPE ([2]; 140 g ai/ha, postemergence): E (45-59); GR50, VERPE [2, 4]: >140 g ai/ha; GR80, VERPE [2, 5]: >140 g ai/ha; GR90, VERPE [2, 6]: >140 g ai/ha

**Q.** Which results are given for `Nc1cc(-c2ccc(Cl)c(Cl)c2Cl)nc(C(=O)O)c1Cl` [Compound 93]?
**A.** Visual Growth Reduction (%) 21 Days After Application, CHEAL ([3]; 17.5 g ai/ha): C (75-84); Visual Growth Reduction (%) 21 Days After Application, CHEAL ([3]; 35 g ai/ha): B (85-94); Visual Growth Reduction (%) 21 Days After Application, CHEAL ([3]; 70 g ai/ha): B (85-94); GR50, CHEAL ([3]; CHEAL, growth reduction of 50%, probit analysis, 21 days): 1 g ai/ha; GR80, CHEAL ([3]; CHEAL, growth reduction of 80%, probit analysis, 21 days): 16 g ai/ha; GR90, CHEAL ([3]; CHEAL, growth reduction of 90%, probit analysis, 21 days): 80 g ai/ha; Visual Growth Reduction (%) 21 Days After Application, GALAP ([3]; 17.5 g ai/ha): D (60-74); Visual Growth Reduction (%) 21 Days After Application, GALAP ([3]; 35 g ai/ha): C (75-84); Visual Growth Reduction (%) 21 Days After Application, GALAP ([3]; 70 g ai/ha): C (75-84); GR50, GALAP ([3]; GALAP, growth reduction of 50%, probit analysis, 21 days): 1 g ai/ha; GR80, GALAP ([3]; GALAP, growth reduction of 80%, probit analysis, 21 days): 88 g ai/ha; GR90, GALAP ([3]; GALAP, growth reduction of 90%, probit analysis, 21 days): >140 g ai/ha; Visual Growth Reduction (%) 21 Days After Application, STEME ([3]; 17.5 g ai/ha): E (45-59); Visual Growth Reduction (%) 21 Days After Application, STEME ([3]; 35 g ai/ha): D (60-74); Visual Growth Reduction (%) 21 Days After Application, STEME ([3]; 70 g ai/ha): D (60-74); GR50, STEME ([3]; STEME, growth reduction of 50%, probit analysis, 21 days): 11 g ai/ha; GR80, STEME ([3]; STEME, growth reduction of 80%, probit analysis, 21 days): >140 g ai/ha; GR90, STEME ([3]; STEME, growth reduction of 90%, probit analysis, 21 days): >140 g ai/ha; Visual Growth Reduction (%) 21 Days After Application, VIOTR ([3]; 17.5 g ai/ha): E (45-59); Visual Growth Reduction (%) 21 Days After Application, VIOTR ([3]; 35 g ai/ha): E (45-59); Visual Growth Reduction (%) 21 Days After Application, VIOTR ([3]; 70 g ai/ha): E (45-59); GR50, VIOTR ([3]; VIOTR, growth reduction of 50%, probit analysis, 21 days): 41 g ai/ha; GR80, VIOTR ([3]; VIOTR, growth reduction of 80%, probit analysis, 21 days): >140 g ai/ha; GR90, VIOTR ([3]; VIOTR, growth reduction of 90%, probit analysis, 21 days): >140 g ai/ha; Visual Growth Reduction (%) 21 Days After Application, SASKR (SASKR (Russian thistle); SASKR Russian thistle (Salsola iberica), 17.5 g ai/ha, post-emergent): B (85-94); Visual Growth Reduction (%) 21 Days After Application, SASKR (SASKR (Russian thistle); SASKR Russian thistle (Salsola iberica), 35 g ai/ha, post-emergent): B (85-94); Visual Growth Reduction (%) 21 Days After Application, SASKR (SASKR (Russian thistle); SASKR Russian thistle (Salsola iberica), 70 g ai/ha, post-emergent): B (85-94); GR50, SASKR (SASKR (Russian thistle); SASKR, growth reduction of 50%, 21 days): 1 g ai/ha; GR80, SASKR (SASKR (Russian thistle); SASKR, growth reduction of 80%, 21 days): 10 g ai/ha; GR90, SASKR (SASKR (Russian thistle); SASKR, growth reduction of 90%, 21 days): 34 g ai/ha; Visual Growth Reduction (%) 21 Days After Application, PAPRH (PAPRH (common poppy); PAPRH common poppy (Papaver rhoeas), 17.5 g ai/ha, post-emergent): C (75-84); Visual Growth Reduction (%) 21 Days After Application, PAPRH (PAPRH (common poppy); PAPRH common poppy (Papaver rhoeas), 35 g ai/ha, post-emergent): C (75-84); Visual Growth Reduction (%) 21 Days After Application, PAPRH (PAPRH (common poppy); PAPRH common poppy (Papaver rhoeas), 70 g ai/ha, post-emergent): B (85-94); GR50, PAPRH (PAPRH (common poppy); PAPRH, growth reduction of 50%, 21 days): 1 g ai/ha; GR80, PAPRH (PAPRH (common poppy); PAPRH, growth reduction of 80%, 21 days): 27 g ai/ha; GR90, PAPRH (PAPRH (common poppy); PAPRH, growth reduction of 90%, 21 days): >140 g ai/ha; Visual Growth Reduction (%) 21 Days After Application, VERPE ([2]; VERPE bird's-eye speedwell (Veronica persica), 17.5 g ai/ha, post-emergent): E (45-59); Visual Growth Reduction (%) 21 Days After Application, VERPE ([2]; VERPE bird's-eye speedwell (Veronica persica), 35 g ai/ha, post-emergent): D (60-74); Visual Growth Reduction (%) 21 Days After Application, VERPE ([2]; VERPE bird's-eye speedwell (Veronica persica), 70 g ai/ha, post-emergent): D (60-74); GR50, VERPE ([2]; VERPE, growth reduction of 50%, 21 days): 24 g ai/ha; GR80, VERPE ([2]; VERPE, growth reduction of 80%, 21 days): >140 g ai/ha; GR90, VERPE ([2]; VERPE, growth reduction of 90%, 21 days): >140 g ai/ha
